From ChEMBL document CHEMBL5252509, “In depth analysis of kinase cross screening data to identify chemical starting points for inhibition of the Nek family of kinases” (Medchemcomm, 2018)

Experiments:
[1] = target: Serine/threonine-protein kinase Nek4 (Homo sapiens) (UniProt P51957); experiment: Inhibition of NEK4 (unknown origin) at 10 uM relative to control
[2] = target: T1, Serine/threonine-protein kinase Nek5 (Homo sapiens) (UniProt Q6P3R8); experiment: Inhibition of NEK5 (unknown origin) at 10 uM relative to control
T1 sequence (whole entry): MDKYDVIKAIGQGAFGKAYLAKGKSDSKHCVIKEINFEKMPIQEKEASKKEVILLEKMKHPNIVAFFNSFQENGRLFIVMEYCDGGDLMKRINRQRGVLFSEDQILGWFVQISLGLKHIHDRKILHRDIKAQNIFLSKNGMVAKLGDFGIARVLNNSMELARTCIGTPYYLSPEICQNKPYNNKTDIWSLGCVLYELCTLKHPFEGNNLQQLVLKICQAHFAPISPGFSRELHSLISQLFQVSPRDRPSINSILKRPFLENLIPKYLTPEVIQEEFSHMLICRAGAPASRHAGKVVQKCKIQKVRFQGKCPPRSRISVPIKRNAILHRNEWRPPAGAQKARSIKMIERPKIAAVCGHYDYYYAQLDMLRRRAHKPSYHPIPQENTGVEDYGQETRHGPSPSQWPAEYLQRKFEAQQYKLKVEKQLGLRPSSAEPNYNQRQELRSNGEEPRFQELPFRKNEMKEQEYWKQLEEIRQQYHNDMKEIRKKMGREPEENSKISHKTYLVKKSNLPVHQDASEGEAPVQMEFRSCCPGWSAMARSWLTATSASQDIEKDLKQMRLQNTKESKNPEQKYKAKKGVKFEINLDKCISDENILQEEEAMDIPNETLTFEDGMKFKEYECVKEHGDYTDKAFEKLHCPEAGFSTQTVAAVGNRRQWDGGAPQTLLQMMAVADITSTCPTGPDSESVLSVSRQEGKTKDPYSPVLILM

[3] = target: Serine/threonine-protein kinase Nek7 (Homo sapiens) (UniProt Q8TDX7); experiment: Inhibition of NEK7 (unknown origin) at 10 uM relative to control
Sequence of Serine/threonine-protein kinase Nek7 (Homo sapiens) (Q8TDX7 whole entry, looked up): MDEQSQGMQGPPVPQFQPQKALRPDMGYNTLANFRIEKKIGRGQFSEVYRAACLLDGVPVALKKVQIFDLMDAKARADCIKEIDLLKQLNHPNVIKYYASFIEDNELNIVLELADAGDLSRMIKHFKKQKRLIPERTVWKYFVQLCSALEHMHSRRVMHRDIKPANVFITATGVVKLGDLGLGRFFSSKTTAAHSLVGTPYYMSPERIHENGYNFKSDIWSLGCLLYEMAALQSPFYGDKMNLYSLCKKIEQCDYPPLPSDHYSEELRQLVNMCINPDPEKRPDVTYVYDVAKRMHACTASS

Sequence of Serine/threonine-protein kinase Nek4 (Homo sapiens) (P51957 whole entry, looked up): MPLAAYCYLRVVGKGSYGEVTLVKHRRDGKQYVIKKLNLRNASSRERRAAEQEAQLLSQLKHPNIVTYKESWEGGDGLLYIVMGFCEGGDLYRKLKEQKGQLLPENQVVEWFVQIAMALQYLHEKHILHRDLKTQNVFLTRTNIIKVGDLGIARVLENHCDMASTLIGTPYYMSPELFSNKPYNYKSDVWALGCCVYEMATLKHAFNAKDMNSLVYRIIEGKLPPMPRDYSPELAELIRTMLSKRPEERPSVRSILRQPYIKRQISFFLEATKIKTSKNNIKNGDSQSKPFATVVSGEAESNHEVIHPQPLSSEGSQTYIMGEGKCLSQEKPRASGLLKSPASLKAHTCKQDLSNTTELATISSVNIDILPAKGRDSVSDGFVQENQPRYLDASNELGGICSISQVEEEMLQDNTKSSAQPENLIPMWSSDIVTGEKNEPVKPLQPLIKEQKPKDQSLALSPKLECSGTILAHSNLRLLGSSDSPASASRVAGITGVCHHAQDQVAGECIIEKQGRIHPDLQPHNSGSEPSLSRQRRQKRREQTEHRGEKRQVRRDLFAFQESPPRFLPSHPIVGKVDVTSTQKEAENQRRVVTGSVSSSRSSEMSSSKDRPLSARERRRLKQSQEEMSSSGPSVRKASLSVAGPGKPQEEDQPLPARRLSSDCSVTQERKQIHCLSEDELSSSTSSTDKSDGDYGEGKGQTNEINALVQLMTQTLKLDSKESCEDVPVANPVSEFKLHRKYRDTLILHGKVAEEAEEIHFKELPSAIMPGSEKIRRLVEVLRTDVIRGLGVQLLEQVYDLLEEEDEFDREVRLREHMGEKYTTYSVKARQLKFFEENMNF

`Fc1cc(-c2cc[nH]/c(=N/c3ccc(-n4cnc(N5CCOCC5)n4)cc3)n2)cc(N2CCOCC2)c1` was tested, and the % control [1] was 100%, the % control [2] was 1.4% and the % control [3] was 45%.

`O=C1NC(=O)/C(=C/c2ccc3nccc(-c4ccncc4)c3c2)S1` gave a % control [1] of 96%, a % control [2] of 100% and a % control [3] of 88%.

`Cc1ccc(NC(=O)c2ccc(NC(=O)/C=C/CN(C)C)cc2)cc1Nc1nccc(-c2cccnc2)n1` gave a % control [1] of 100%, a % control [2] of 51% and a % control [3] of 20%.

`CN(C)C/C=C/C(=O)Nc1cccc(C(=O)Nc2ccc(Nc3nccc(/C(C#N)=C4\Nc5ccccc5S4)n3)cc2)c1` was tested, and the % control [1] was 100%, the % control [2] was 100% and the % control [3] was 100%.

With `CN(C)C/C=C/C(=O)Nc1cccc(C(=O)Nc2ccc(Nc3nccc(-c4cccnc4)n3)cc2)c1` the % control [1] was 83%, the % control [2] was 7.8% and the % control [3] was 7%.
